# Reference: PubChem BioAssay AID1963840 (Molecular Pharmacology Branch, DTP, NCI, 2024)
# pIC50: −log10 of the molar value.
# System: 695427-040-R-J1-PDC complex spheroid viability
# Test: Anticancer human tumor 695427-040-R-J1-PDC patient-derived colon adenocarcinoma cell line growth inhibition [POLQ]
# Conditions: for pIC50: curve of first compound; for viability, T/C: stronger effect = lower value
# Method: Multicellular complex tumor spheroid response to Polymerase (POL) inhibitors (novobiocin, ART-558, RP6685) in combination with a variety of drugs and investigational agents in selected tumor cell lines
# The POL inhibitors (novobiocin, ART-558, and RP6685) were evaluated both individually and in combination with standard of care and investigational anticancer small molecules within a complex spheroid model of solid tumors. . Complex spheroids include a stromal component modeled by human endothelial cells (HUVEC) and fibroblasts modeled by human mesenchymal stem cells (MSCs). The concentration ranges selected for each drug and investigational agent were based upon clinically achievable concentrations if the clinical Cmax of the agent was known.
# Compounds. The drugs and investigational agents: novobiocin (NSC847541), ART-558 (NSC835418), RP-6685 (NSC848927), peposertib (NSC802822), ceralasertib (NSC780249), elimusertib (NSC800525), camonsertib (NSC841442), AZD-1390 (NSC803789), olaparib (NSC753686), talazoparib (NSC767125), rucaparib (NSC756644), sotorasib (NSC818433), MRTX-1133 (NSC836407), SN-38 (NSC673596), topotecan (NSC609699), epotoside (NSC141540), doxorubicin (NSC123127), gemcitabine (NSC613327), 5-fluorouracil (NSC19893), paclitaxel (NSC125973), vemurafenib (NSC761431), MSA-2 (NSC828583), SN-011 (NSC837082), adavosertib (NSC754352), prexasertib (NSC758257), carboplatin (NSC241240) and oxaliplatin (NSC266046), were obtained from the National Cancer Institute (NCI) Developmental Therapeutics Program Chemical Repository (21). The FDA-approved anticancer drug set is available from the Developmental Therapeutics Program at https://dtp.cancer.gov/organization/dscb/obtaining/. […] The stock solutions were prepared in dimethyl sulfoxide (DMSO, Sigma-Aldrich, St. Louis, MO, cat. D2650), except for the platinum compounds which were prepared in saline (Quality Biological, Gaithersburg, MD, cat. 114-055-101), at 800-fold the tested concentration and stored at -70 degrees C prior to their use. All drugs and investigational agents were tested over a range starting from a high concentration at or near the clinical Cmax and decreasing in half-log increments. If the clinical Cmax for an agent had not been determined, the highest concentration tested was 10 microM, except for SN-38, which was tested at a high concentration of 1 microM.
# Cell Culture. All cells were maintained in an incubator at 37 degrees C and 5% CO2 with 95% humidity. The PDC lines were cultured according to standard operating procedures established by the NCI PDMR (https://pdmr.cancer.gov). Table 3 of the manuscript, lists the cell lines along with the number of the three cell types plated to form the mct-spheroids and media for tumor cell growth. After thawing, all PDC lines, except 997537-175-T-J1-PDC and 415267-285-R-J2-PDC, were cultured in Matrigel-coated flasks prepared with a working solution of 1X Ham's F-12 nutrient mix, without supplementation (Thermo Fisher Scientific, cat. 11765054), 100 U/mL penicillin-streptomycin (Thermo Fisher Scientific, cat. 15140122), and 2.5% Matrigel (Corning Inc., Corning, NY, cat. 354248) for the first three passages. The two PDC lines 997537-175-T-J1-PDC and 415267-285-R-J2-PDC were cultured on uncoated flasks. The 857933-349-R-J2-PDC line was cultured in 6C/Colon 1B media containing advanced DMEM/F-12 (Thermo Fisher Scientific, cat. 12634028), 10 mM HEPES (Thermo Fisher Scientific, cat. 15630080), 1X GlutaMAX supplement (Thermo Fisher Scientific, cat. 35050061), 0.1 mg/mL primocin (InvivoGen, San Diego, CA, cat. ant-pm-2), 10% defined fetal bovine serum, heat inactivated (HyClone Laboratories Inc., Logan, UT, cat. SH30070.03HI), 50% L-WRN conditioned media (ATCC, cat. CRL-3276), 1.25 mM N-Acetyl-L-cysteine (Sigma-Aldrich, cat. A9165), 10 mM nicotinamide (Sigma-Aldrich, cat. N0636), 1X B-27 supplement (Thermo Fisher Scientific, cat. 17504044), 1X N-2 supplement (Thermo Fisher Scientific, cat. […]
# 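Also: spheroids exposed to compounds for seven days.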
# 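For viability, T/C in this document: 100% = DMSO vehicle control viability.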
structure (smiles),measurement,setting,value
C#Cc1c(F)ccc2cc(O)cc(-c3ncc4c(N5CC6CCC(C5)N6)nc(OCC56CCCN5CC(F)C6)nc4c3F)c12 (configuration not stated) + Nc1ccc(C#CCN(C(=O)Cc2ncc(C(F)(F)F)cc2C(F)(F)F)c2ccc(F)cc2)nn1,pIC50,second compound 0.0316 µM,< 5.00
same,pIC50,second compound 0.1 µM,< 5.00
same,pIC50,second compound 0.316 µM,< 5.00
same,pIC50,second compound 1 µM,< 5.00
same,pIC50,second compound 3.16 µM,< 5.00
same,pIC50,second compound 10 µM,< 5.00
same,"viability, T/C","second compound 0.0316 µM, first compound 0.0316 µM",104%
same,"viability, T/C","second compound 0.0316 µM, first compound 0.1 µM",102%
same,"viability, T/C","second compound 0.0316 µM, first compound 0.316 µM",106%
same,"viability, T/C","second compound 0.0316 µM, first compound 1 µM",97.9%
same,"viability, T/C","second compound 0.0316 µM, first compound 3.16 µM",102%
same,"viability, T/C","second compound 0.0316 µM, first compound 10 µM",88.7%
same,"viability, T/C","second compound 0.1 µM, first compound 0.0316 µM",118%
same,"viability, T/C","second compound 0.1 µM, first compound 0.1 µM",96.9%
same,"viability, T/C","second compound 0.1 µM, first compound 0.316 µM",105%
same,"viability, T/C","second compound 0.1 µM, first compound 1 µM",98.9%
same,"viability, T/C","second compound 0.1 µM, first compound 3.16 µM",96.9%
same,"viability, T/C","second compound 0.1 µM, first compound 10 µM",89.4%
same,"viability, T/C","second compound 0.316 µM, first compound 0.0316 µM",109%
same,"viability, T/C","second compound 0.316 µM, first compound 0.1 µM",105%
same,"viability, T/C","second compound 0.316 µM, first compound 0.316 µM",92.3%
same,"viability, T/C","second compound 0.316 µM, first compound 1 µM",101%
same,"viability, T/C","second compound 0.316 µM, first compound 3.16 µM",99.4%
same,"viability, T/C","second compound 0.316 µM, first compound 10 µM",78.9%
same,"viability, T/C","second compound 1 µM, first compound 0.0316 µM",107%
same,"viability, T/C","second compound 1 µM, first compound 0.1 µM",95.5%
same,"viability, T/C","second compound 1 µM, first compound 0.316 µM",97.2%
same,"viability, T/C","second compound 1 µM, first compound 1 µM",108%
same,"viability, T/C","second compound 1 µM, first compound 3.16 µM",103%
same,"viability, T/C","second compound 1 µM, first compound 10 µM",79.6%
same,"viability, T/C","second compound 3.16 µM, first compound 0.0316 µM",94.5%
same,"viability, T/C","second compound 3.16 µM, first compound 0.1 µM",94.9%
same,"viability, T/C","second compound 3.16 µM, first compound 0.316 µM",105%
same,"viability, T/C","second compound 3.16 µM, first compound 1 µM",86.7%
same,"viability, T/C","second compound 3.16 µM, first compound 3.16 µM",96%
same,"viability, T/C","second compound 3.16 µM, first compound 10 µM",84.6%
same,"viability, T/C","second compound 10 µM, first compound 0.0316 µM",92%
same,"viability, T/C","second compound 10 µM, first compound 0.1 µM",104%
same,"viability, T/C","second compound 10 µM, first compound 0.316 µM",86.9%
same,"viability, T/C","second compound 10 µM, first compound 1 µM",83.6%
same,"viability, T/C","second compound 10 µM, first compound 3.16 µM",73.7%
same,"viability, T/C","second compound 10 µM, first compound 10 µM",69.3%
